Common to all, as to assay type: in vivo, mouse
The subject of assay [1] is POMC null mutants and wildtype littermates. The assay can be described thus: Corticosterone supplementation in drinking water, blood glucose levels. To be noted: 25 μg per mL in drinking water for 3½ months, starting at 3 months of age; POMC null mutants and wildtype females. Here is the method:
(§1) In the experiment illustrated in FIG. 7, POMC null mutants and wildtype littermate females, 5 per group, received drinking water containing corticosterone (25 μg per mL) or nothing in addition for 3½ months, starting at 3 months of age. Blood glucose levels were determined before and after corticosterone supplementation.

In assay [2] the test system is POMC null mutants and wildtype mice. The assay is described as follows: Insulin tolerance test after corticosterone supplementation. The protocol:
In this experiment, illustrated in FIG. 6, food was taken away in the morning from 5 month old females, 5 per group. 6 hrs later, the mice were injected with insulin (Human insulin, 1 Unit/kg, i.p.). Blood was collected at times indicated and glucose measured using a Glucometer.
as §1

The test system of assay [3] is POMC mutants and wildtype mice. The assay can be described thus: Insulin tolerance test after MSH or ACTH treatment. To be noted: for glucoregulatory response / ability of POMC null mice: peripheral administration to POMC null mice. Here is the method:
In this experiment, illustrated in FIG. 9, glucose was measured in 4-6 month old female mice, wildtypes and POMC mutants, 5 mice per group. Mice were fasted for 5 hours. Each genotype (wildtype +/+and mutant −/−) received either: (1) 0.1 mL saline i.p.; (2) 0.1 mL saline containing 1 μg α-MSH i.p.; or (3) 0.1 mL saline containing 1 μg ACTH s.c.
One hour later, human insulin (0.5 mIU/g body weight) was injected intraperitoneally in all mice, and glucose was measured at the indicated intervals in blood collected from a tail nick.

Results on two molecules are retold here after patent US6689938B2, “Method for treatment of insulin resistance in obesity and diabetes” (Oklajoma Medical Research Foundation, priority 2000, dated 2004).

`C[C@]12C[C@H](O)[C@H]3[C@@H](CCC4=CC(=O)CC[C@@]43C)[C@@H]1CC[C@@H]2C(=O)CO` [corticosterone]: in assay [1], the “induction of diabetes (blood glucose levels before and after supplementation)” value was “does not induce diabetes”. Further, the “counterregulatory response in insulin tolerance test” value in assay [2] (POMC mutants versus wildtype mice) is on record as “lag behind the wildtype mice in their counterregulatory response in the same manner as without corticosterone supplementation”. Moreover, the “blood glucose levels in insulin tolerance test” value in assay [2] (both wildtypes and mutants, versus untreated group) is “do not fall to as low a level as in the untreated group”.
Turning to “Ac-Ser-Tyr-Ser-Met-Glu-His-Phe-Arg-Trp-Gly-Lys-Pro-Val-NH2 [α-MSH]”, the “blood glucose levels in insulin tolerance test, treated POMC mutants versus wildtype littermates” value in assay [3] (1 μg α-MSH i.p. one hour before human insulin 0.5 mIU/g i.p., 4-6 month old females fasted 5 hours) is reported as “not significantly different”. The “insulin resistance in the POMC null mouse” value in assay [3] (administration to the POMC null mouse) is “induces insulin-resistance”. In addition, the figures for the “glucoregulatory response / ability of POMC null mice” value in assay [3] and in assay [3] (listed as melanocortin stimulating hormone (MSH)) were “restored the glucoregulatory ability” and “nearly normalizes the glucoregulatory response”, respectively.
